In ChEMBL document CHEMBL1158442, “Design, synthesis and structure-activity relationships of (1H-pyridin-4-ylidene)amines as potential antimalarials” (Bioorg Med Chem Lett, 2009) one finds IC50 data, which are given here for 22 compounds.

Where only a bound is given, the exact number is not on record here.

Experiment [1] deals with Plasmodium falciparum. Kind of experiment: Antimalarial activity after 48 hrs against chloroquine-resistant Plasmodium falciparum W2 by [3H]hypoxanthine uptake. It is filed as functional, organism-based.
Experiment [2] relates to Plasmodium falciparum. Kind of experiment: Antimalarial activity after 48 hrs against atovaquone-resistant Plasmodium falciparum FCR3 by [3H]hypoxanthine uptake. It is filed as functional, organism-based.

`CCn1cc/c(=N\c2cccc(CCc3ccc(C(F)(F)F)cc3)c2)c(Cl)c1`: the concentration for half-maximal inhibition (IC50) in the experiment with Plasmodium falciparum [1] worked out at 1.6 µM; in the experiment with Plasmodium falciparum [2] it was 1.87 µM.
As to `CC[N+](C)(CC)Cc1cc(/N=c2\ccn(C)cc2S(=O)(=O)N(C)C)ccc1OC`, the IC50 is above 50 µM in the experiment with Plasmodium falciparum [1] and above 10 µM with Plasmodium falciparum [2].
The matching figures for `CCn1cc/c(=N\c2ccc(CCc3ccccc3)cc2)c(Cl)c1`: above 10 µM and 3.74 µM.
As for `CCn1cc/c(=N\c2cccc(CCc3ccccc3)c2)c(N)c1`, the figures for the IC50 in the experiment on Plasmodium falciparum [1] and with Plasmodium falciparum [2] were 1.67 µM and 2.08 µM, respectively.
With `CCN(CC)Cc1cc(/N=c2\ccn(C)c(C)c2)ccc1O`, the IC50 with Plasmodium falciparum [1] amounted to 20.7 µM; with Plasmodium falciparum [2] it was 8.09 µM.
For the compound `CCN(CC)Cc1cc(/N=c2\ccn(C)cc2C)ccc1O`, the IC50 with Plasmodium falciparum [1] was 33 µM; in the experiment with Plasmodium falciparum [2] it was above 10 µM.
For the compound `Cn1cc/c(=N\c2cccc(CCc3ccccc3)c2)c(Cl)c1`, the half-inhibitory concentration (IC50) was 4.75 µM in the experiment on Plasmodium falciparum [1] and 2.89 µM in the experiment on Plasmodium falciparum [2].
In the case of `COc1ccc(CCc2cccc(/N=c3\ccn(C)cc3Cl)c2)cc1`, the IC50 in the experiment with Plasmodium falciparum [1] is 5.24 µM; in the experiment with Plasmodium falciparum [2], 5.12 µM.
`CCn1cc(Cl)c(=Nc2cccc(CCc3ccc(OC(F)(F)F)cc3)c2)c(Cl)c1`: the IC50 with Plasmodium falciparum [1] is 0.94 µM; in the experiment with Plasmodium falciparum [2], 2.8 µM.
As to `CCN(CC)Cc1cc(N=c2ccn(C)cc2)ccc1O`, the IC50 is 8.61 µM in the experiment on Plasmodium falciparum [1] and 7.9 µM with Plasmodium falciparum [2].
On to `CCn1cc/c(=N\c2cccc(CCc3ccc(OC(F)(F)F)cc3)c2)c(Cl)c1`, for which the IC50 in the experiment on Plasmodium falciparum [1] worked out at 1.07 µM; with Plasmodium falciparum [2] it was 1.7 µM.
For the compound `CCn1cc/c(=N\c2cccc(CCCc3ccccc3)c2)c(Cl)c1`, the IC50 in the experiment with Plasmodium falciparum [1] amounted to 2.43 µM; in the experiment with Plasmodium falciparum [2], 2.25 µM.
Regarding `On1cc/c(=N\c2cccc(CCc3ccccc3)c2)c(Cl)c1`, the 50% inhibitory concentration (IC50) in the experiment on Plasmodium falciparum [1] and with Plasmodium falciparum [2] was above 8900 µM each time.
As to `CCn1cc/c(=N\c2cccc(CCc3ccccc3)c2)c(Cl)c1`, the concentration for half-maximal inhibition (IC50) in the experiment with Plasmodium falciparum [1] turned out to be 3.46 µM; with Plasmodium falciparum [2] it was 3.53 µM.
Consider `CCn1cc/c(=N\c2cccc(CCc3ccc(Cl)cc3)c2)c(Cl)c1`, for which the IC50 in the experiment on Plasmodium falciparum [1] came to 3.24 µM; with Plasmodium falciparum [2] it was 2.17 µM.
The matching figures for `CCn1cc/c(=N\c2cccc(CCc3ccc(OC)cc3)c2)c(Cl)c1`: 3.44 µM and 3.95 µM.
As for `CCn1cc/c(=N\c2ccccc2CCc2ccccc2)c(Cl)c1`, the IC50 stood at 6.77 µM with Plasmodium falciparum [1] and 3.19 µM in the experiment on Plasmodium falciparum [2].
As to `Cn1cc/c(=N\c2cccc(CCc3ccccc3)c2)c(N)c1`, the IC50 in the experiment with Plasmodium falciparum [1] was 1.47 µM; in the experiment with Plasmodium falciparum [2], 2.21 µM.
As to `CC[N+](C)(CC)Cc1cc(/N=c2\ccn(C)c(C)c2)ccc1O`, the IC50 with Plasmodium falciparum [1] is above 50 µM; in the experiment on Plasmodium falciparum [2] it was 9.86 µM.
For `CCn1cc/c(=N\c2cccc(CCc3ccc(OC(F)(F)F)cc3)c2)c(N)c1`, the IC50 with Plasmodium falciparum [1] was found to be 3.91 µM; in the experiment with Plasmodium falciparum [2], 1.83 µM.
`O=C1C(O)=C([C@H]2CC[C@H](c3ccc(Cl)cc3)CC2)C(=O)c2ccccc21` [ATOVAQUONE] displayed an IC50 in the experiment with Plasmodium falciparum [2] of 1.89 µM.
Turning to `Cc1nc(C)c(Cl)c(O)c1Cl` [CLOPIDOL], the half-maximal inhibitory concentration (IC50) amounted to 9.73 µM with Plasmodium falciparum [1] and 3.37 µM with Plasmodium falciparum [2].
